This is an account of results in patent US8241842B2, “Methods and devices for measuring diffusion by magnetic resonance imaging” (California Institute of Technology, priority 2003, dated 2012).

“And” between values parts separate entries of the source, which are not always exact repeats. Equal entries are not always repeated. Where two headings read alike, the source gives them in different places.

For series [1] the following is noted: from mean signal ratio between chambers; one saturated with oxygen, the other with argon; 0.4 μm polycarbonate film. An excerpt:
(§1) This sample assembly is then inserted in the upper circular recess of the membrane cell base. The membrane cell washer is then placed over the sample assembly and the membrane cell cap screwed onto the base, tightening the washer onto the sample assembly. The upper central well in the membrane cell cap is then filled with inert gas (e.g. argon or nitrogen) saturated aqueous solution and sample placed in the magnetic resonance imaging system.
(§2) Sequential T1-weighted magnetic resonance images are acquired of a midline slice through the membrane cell, parallel to the long-axis of the cell.
The generalized exponential decay to equilibrium in two chamber system, including systematic drift function F(t) is given by: SA(t)=F(t)[SA(∞)+(SA(0)−SA(∞))e^−t/Tc] SB(t)=F(t)[SB(∞)+(SB(∞)−SB(0))e^−t/Tc] Taking the ration of the two signals eliminates the systematic drift allowing the time-constant for the transport across the membrane to be determined from the MRI signal time-course, as follows:
The dividing membrane was 0.4 μm pore-size polycarbonate film.

The conditions of series [2]: from mean signal ratio between chambers; one saturated with oxygen, the other with argon; fresh Bruch's membrane.
From the text: as §1, §2
The generalized exponential decay to equilibrium in two chamber system, including systematic drift function F(t) is given by: SA(t)=F(t)[SA(∞)+(SA(0)−SA(∞))e^−t/Tc] SB(t)=F(t)[SB(∞)+(SB(∞)−SB(0))e^−t/Tc] Taking the ration of the two signals eliminates the systematic drift allowing the time-constant for the transport across the membrane to be determined from the MRI signal time-course, as follows: […]

A short description of series [3]: MRI of gadolinium chelate diffusion across a membrane (Example 3, FIG. 5). Conditions: exponential fit to signal difference between chambers; upper chamber initially 1 mM gadolinium chelate, lower chamber water. The format is physicochemical. How it is done:
FIGS. 5A-5C provide the results of experiments on gadolinium chelate-concentration related signal changes in two chambers. (a) MR image of the membrane cell with the upper chamber initially containing 1 mM gadolinium chelate (Prohance® (gadoteridol), Bracco Diagnostics Inc., Princeton N.J.) and the lower chamber containing water. Signal enhancement due to the gadolinium chelate can be indicated by red false coloring. (b) the mean signal time course within the regions of interest indicated by black boxes in (a). The signal difference between the chambers has been fitted to an exponential and has a time-constant of approximately 158 minutes. The concentration time course in each chamber would require signal-concentration calibration. […] This effect would not be readily detected by non-imaging methods.
Gadolinium chelates of various molecular weights (e.g. […]) may be used as MR detectable tracers which alter the T1 relaxation time of the surrounding water and thus imparts contrast to the image. […] If the upper chamber is initially filled with a dilute aqueous solution of the chelate, and the lower chamber is filled with water, the diffusional permeability of the membrane may be estimated from the time course of either (a) the mean signal within each chamber or (b) the spatial variation of chelate above and below the membrane as determined by calibrated MR images. […]

Series [4] can be described thus: MRI of D2O/H2O exchange across a membrane in the membrane cell (Example 1A, FIG. 1). In kind it is physicochemical. Conditions: Water/D2O chamber signal ratio vs time, best fit exponential; one chamber initially D2O, the other H2O. The text has this: D2O gives no signal in conventional 1H MRI, and thus acts as a negative marker. The diffusional permeability can then be calculated from the signal time-course using conventional mass transport equations assuming that signal intensity is proportional to water concentration.
FIG. 1 provides the results of experiments on D2O-concentration related signal changes in two chambers, one initially containing D2O, the other with H2O.

A short description of series [5]: MRI of D2O/H2O exchange across a membrane in the membrane cell (Example 1B, FIG. 2). The format is physicochemical. As to conditions: signal difference between chambers over 64 minutes; upper chamber deuterium oxide saline, lower water saline; 12 micron pore-size polycarbonate membrane. The text has this:
A 5 mm diameter membrane tissue sample is mounted between two layers of 125 micron pore-size nylon mesh. The tissue sample assembly is then mounted in the central recess of the cell base and the cell cap is tightened onto the base using three M2.5 nylon screws. O-rings mounted into the cap and base prevent fluid leakage between the upper and lower central chambers. The central well of the base is filled with water or saline water with the cell inverted. The base well is then sealed with impermeable adhesive tape. The central well of the upper chamber is filled with deuterium oxide (D2O) or D2O saline and sealed with impermeable adhesive tape as before.
D2O gives no signal in conventional ^1H MRI, and thus acts as a negative marker. The diffusional permeability can then be calculated from either the mean signal time-courses in the upper and lower chambers using conventional mass transport equations assuming that signal intensity is proportional to water concentration.
FIG. 2 provides the results of experiments on D2O-concentration related signal changes in two chambers, one initially containing D2O, the other with H2O. Cross-sectional T1-weighted magnetic resonance image through the membrane cell during permeability testing of a single layer of 12 micron pore-size polycarbonate membrane. Images at (a) time=0 minutes and (b) 64 minutes are shown. Images were acquired every 256 seconds. […]

For `O=O` [oxygen], the time-constant in series [1] is 59.8 min and 54.9 min; in series [2] it was 67.7 min.

For the molecule `CC(O)CN1CCN(CC(=O)[O-])CCN(CC(=O)[O-])CCN(CC(=O)[O-])CC1.[Gd+3]` (centres unmarked) [Prohance, gadoteridol], the time-constant result in series [3] is reported as “approximately 158 minutes”.

With `[2H]O[2H]` [D2O, deuterium oxide], the “time constant for the exchange” value in series [4] is given as “approximately 17.3 minutes”. Besides, the “time-constant of the fitted exponential decay (index of membrane permeability)” value in series [5] is 40.7 min.
